Article PMC6112376, “Comprehensive Analyses and Prioritization of Tox21 10K Chemicals Affecting Mitochondrial Function by in-Depth Mechanistic Studies” (Environmental Health Perspectives, 2018)
Where a name gives a salt, the structure may show the parent alone. Read-outs that look alike come from different tables or passages of the source.

Legend:
HepG2 cells [1] = conditions: for IC50: read-out: MMP assays IC50 (µM) HepG2
rat primary hepatocytes [2] = system: rat primary hepatocytes
HepG2 cells [3] = conditions: cited from earlier work
rat primary hepatocytes [4] = assay: MMP assay in rat primary hepatocytes; conditions: for IC50: read-out: MMP assays IC50 (µM) Rat Hepatocytes
[5] = read-out: MMP assays IC50 (µM), qHTS-HepG2
[6] = read-out: MMP assays IC50 (µM) qHTS-HepG2
[7] = HepG2 cells, single number from one experiment

Row | Compound | MMP assays efficacy (%) HepG2 (HepG2 cells [1]) | IC50 (HepG2 cells [1]) [µM] | MMP assays efficacy (%) Rat Hepatocytes (rat primary hepatocytes [2]) | MMP assays efficacy (%) qHTS-HepG2 (HepG2 cells [3]) | IC50 (HepG2 cells [3]; [5]) [µM] | IC50 (rat primary hepatocytes [4]) [µM] | MMP assays IC50 (µM) HepG2 (HepG2 cells [1]) | IC50 (rat primary hepatocytes [4]; Rattus norvegicus, Hepatocyte) [µM] | IC50 (HepG2 cells [3]; [6]) [µM] | MMP assays IC50 (µM) Rat Hepatocytes (rat primary hepatocytes [4]) | MMP assays IC50 (µM) qHTS-HepG2 (HepG2 cells [3]) | MMP assays efficacy (%) HepG2 (HepG2 cells [1]; [7]) [%] | IC50 (HepG2 cells [1]; [7]) [µM] | IC50 (rat primary hepatocytes [4]; rat hepatocytes, mean ± SD of three experiments) [µM]
1 | CCCCCCCCCCCCCC[P+](CCCCCC)(CCCCCC)CCCCCC.[Br-] [Trihexyltetradecylphosphonium bromide] | -95% | 0.45 | -89±37% | -96±9% | 0.84 ± 0.24 | 18.8 ± 4.25 |  |  |  |  |  |  |  | 
2 | CC(=O)[C@]1(O)Cc2c(O)c3c(c(O)c2[C@@H](O[C@H]2C[C@H](N)[C@H](O)[C@H](C)O2)C1)C(=O)c1ccccc1C3=O [Idarubicin hydrochloride] | inactive |  | -38±9% | -124±48% | 6.83 ± 1.46 |  | inactive | 27 ± 10.7 |  |  |  |  |  | 
3 | O=C1CCCc2c1cc1ccc3cccc4ccc2c1c34 [9,10-Dihydrobenzo[a]pyren-7(8H)-one] | inactive |  | -79±35% | -90±6% |  | 16.8 ± 7.33 | inactive |  | 9.81 ± 2.08 |  |  |  |  | 
4 | Nc1nc(N)c(N)c(N)n1.O=S(=O)(O)O [tetra-Aminopyrimidine sulfate] | -87% | 25.1 | -55±32% | -117±30% | 18.7 ± 11.4 | 42.1 ± 30.6 |  |  |  |  |  |  |  | 
5 | CCC1(c2ccccc2)C(=O)NC(=O)N(C(=O)c2ccccc2)C1=O (stereo not shown) [Benzobarbital] | inactive |  | inactive | -82±27% |  |  | inactive |  | 24.1 ± 5.12 | inactive |  |  |  | 
6 | Nc1c(Br)cc(Br)c2c1C(=O)c1ccccc1C2=O [1-Amino-2,4-dibromoanthraquinone] | inactive |  | -48±19% | -54±9% |  |  | inactive | 27.4 ± 4.44 | 2.78 ± 3.75 |  |  |  |  | 
7 | CN(N=O)c1ccc([N+](=O)[O-])cc1 [N-Nitroso-N-methyl-4-nitroaniline] | inactive |  | -69+6% | inactive |  | 20 ± 16.6 | inactive |  |  |  | inactive |  |  | 
8 | CC(=Cc1ccccc1)[N+](=O)[O-] [(2-Nitro-1-propenyl)benzene] | inactive |  | -107±47% | -105±10% |  |  | inactive | 25.9 ± 8.35 | 38.6 ± 15.3 |  |  |  |  | 
9 | O=C1[C@H](CC[C@H](O)c2ccc(F)cc2)[C@@H](c2ccc(O)cc2)N1c1ccc(F)cc1 | -112% |  | -52±2% | -81±11% |  | 16.6 ± 20.1 |  |  | 25.6 ± 3.54 |  |  |  |  | 
10 | CCCCCCCCCCCC(=O)[O][Sn]([CH2]CCC)([CH2]CCC)[O]C(=O)CCCCCCCCCCC [Dibutyltin dilaurate] | -86% | 27.5 | -52+36% | inactive |  | 22.4 ± 7.17 |  |  |  |  | inactive |  |  | 
11 | CCCCC/C(=C\c1ccccc1)CO [alpha-Amylcinnamyl alcohol] | -69% | 56.2 | -85±44% | -87±10% |  | 4.83 ± 4.07 |  |  | 38.1 ± 17.4 |  |  |  |  | 
12 | COc1ccc(N)cc1N.O=S(=O)(O)O [2,4-Diaminoanisole sulfate] | -125% | 7.94 | -58±24% | -95±6% |  | 19.6 ± 19.3 |  |  | 2.51 ± 1.16 |  |  |  |  | 
13 | O=C1C(I)=CC(=C(c2cc(I)c(O)c(I)c2)c2ccccc2C(=O)O)C=C1I [Iodophthalein sodium] | -97% | 6.9 | -107±27% | -82±5% | 10.8 ± 3.91 | 8.73 ± 1 |  |  |  |  |  |  |  | 
14 | COc1ccc(O)c(C(C)(C)C)c1 [Compound 2-tert-Butyl-4-methoxyphenol] |  | 35.5 | -53±11% | -92±3% |  | 36.5 ± 19.2 |  |  | 25.3 ± 1.71 |  |  |  |  | 
15 | Cc1ccc(S(=O)(=O)NC2CCCCC2)cc1 [N-Cyclohexyl-4-methyl benzenesulfonamide] | inactive |  | -46±15% | -83±10% | 36.1 ± 21 | 38.1 ± 25.6 | inactive |  |  |  |  |  |  | 
16 | CCC[CH2][Sn]([CH2]CCC)([CH2]CCC)[CH2]CCC [Tetrabutyltin] | -98% | 11.2 | inactive | -100±1% | 5.66 ± 1.03 |  |  |  |  | inactive |  |  |  | 

Row | Compound | MMP assays efficacy (%) HepG2 (HepG2 cells [1]) | IC50 (HepG2 cells [1]) [µM] | MMP assays efficacy (%) Rat Hepatocytes (rat primary hepatocytes [2]) | MMP assays efficacy (%) qHTS-HepG2 (HepG2 cells [3]) | IC50 (HepG2 cells [3]; [5]) [µM] | IC50 (rat primary hepatocytes [4]) [µM] | MMP assays IC50 (µM) HepG2 (HepG2 cells [1]) | IC50 (rat primary hepatocytes [4]; Rattus norvegicus, Hepatocyte) [µM] | IC50 (HepG2 cells [3]; [6]) [µM] | MMP assays IC50 (µM) Rat Hepatocytes (rat primary hepatocytes [4]) | MMP assays IC50 (µM) qHTS-HepG2 (HepG2 cells [3]) | MMP assays efficacy (%) HepG2 (HepG2 cells [1]; [7]) [%] | IC50 (HepG2 cells [1]; [7]) [µM] | IC50 (rat primary hepatocytes [4]; rat hepatocytes, mean ± SD of three experiments) [µM]
17 | C=C1CC[C@H](O)C/C1=C/C=C1\CCC[C@]2(C)[C@@H]([C@H](C)CCCC(C)C)CC[C@@H]12 [Vitamin D3] | inactive |  | inactive | inactive |  |  | inactive |  |  | inactive | inactive |  |  | 
18 | N=C(N)NN=C(/C=C/c1ccc([N+](=O)[O-])o1)/C=C/c1ccc([N+](=O)[O-])o1 [Nitrovin] | -118% | 5.48 | -89±11% | -94±2% | 3.27 ± 0.57 | 16.4 ± 1.33 |  |  |  |  |  |  |  | 
19 | Cc1ccc(-n2nc(C(C)(C)C)cc2NC(=O)Nc2ccc(OCCN3CCOCC3)c3ccccc23)cc1 [Doramapimod;BIBR-796?] | -69% | 21.8 | -77±5% |  |  | 24.1 ± 9.54 |  |  | 21.1 ± 5.52 |  |  |  |  | 
20 | COc1cc([C@@H]2c3cc4c(cc3[C@H](O)[C@H]3COC(=O)[C@@H]23)OCO4)cc(OC)c1OC [Picropodophyllin;AXL-1717/NSC-36407] | -58% | 0.0548 | inactive | -56±10% | 0.14 ± 0.02 |  |  |  |  | inactive |  |  |  | 
21 | CC1=C(/C=C/C(C)=C/C=C/C(C)=C/C(=O)Nc2ccc(O)cc2)C(C)(C)CCC1 | -92% | 4.89 | inactive | -100±0% |  |  |  |  | 3.4 ± 0.76 | inactive |  |  |  | 
22 | CCc1ccc(CCOc2ccc(CC3SC(=O)NC3=O)cc2)nc1 (stereo not shown) [Pioglitazone hydrochloride] | inactive |  | -69+30% | inactive |  |  | inactive | 8.9 ± 9.2 |  |  | inactive |  |  | 
23 | Cl.Cl.Nc1ccccc1N [1,2-Phenylenediamine dihydrochloride] | -90% | 1.78 | -104±10% | -99±9% |  | 14.2 ± 2.3 |  |  | 0.44 ± 0.2 |  |  |  |  | 
24 | CC(=O)O[Si](C)(OC(C)=O)OC(C)=O [Methylsilanetriyl triacetate] | inactive |  | inactive | -67±10% | 29.1 ± 16.4 |  | inactive |  |  | inactive |  |  |  | 
25 | O=C(Nc1cccc([N+](=O)[O-])c1)c1cc2ccccc2cc1O | -93% | 0.28 | -89±5% | -91±2% |  | 1.6 ± 0.26 |  |  | 0.24 ± 0.09 |  |  |  |  | 
26 | CCCCCCCCCCCCCC[P+](CCCC)(CCCC)CCCC.[Cl-] [Tributyltetradecylphosphonium chloride] |  | 1.12 | -93±15% | -82±17% | 0.71 ± 0.15 | 7.66 ± 0.5 |  |  |  |  |  |  |  | 
27 | CC(=O)OCC(=O)[C@@]12OC(C)(C)O[C@@H]1C[C@H]1[C@@H]3C[C@H](F)C4=CC(=O)C=C[C@]4(C)[C@@]3(F)[C@@H](O)C[C@@]12C [Fluocinonide] | inactive |  | inactive | inactive |  |  | inactive |  |  | inactive | inactive |  |  | 
28 | CC(=O)[O][Sn]([c]1ccccc1)([c]1ccccc1)[c]1ccccc1 [Triphenyltin acetate] | -94% | 1.12 | -74±32% | -99±5% | 0.12 ± 0.04 | 24.1 ± 10.1 |  |  |  |  |  |  |  | 
29 | O=C(Nc1ccc(Br)cc1)c1cc(Br)cc(Br)c1O [Tribromosalan] |  |  | -96±35% |  | 1.12 |  |  |  |  |  |  | -111 | 0.97 | 0.55 ± 0.36
30 | Tributyltin chloride | -96% | 0.89 | -136±58% | -97±11% | 0.11 ± 0.02 | 8.95 ± 1.03 |  |  |  |  |  |  |  | 
31 | O=[Se](O)O [Selenious acid] | inactive |  | -75±56% | -68±13% | 16 ± 22.8 | 44.1 ± 26.9 | inactive |  |  |  |  |  |  | 
